# Laboratory results published in patent US20140315943A1, “COMBINATION THERAPY OF HSP90 INHIBITORY COMPOUNDS WITH MTOR/P13K INHIBITORS” (SYNTA PHARMACEUTICALS CORP., priority 2011, published 2014).
# Where two headings read alike, the source gives them in different places.
# What was measured:
# [1] = test system: 4EBP1; assay: Western blot, 4EBP1 dephosphorylation; type: cell-based; conditions: A375 melanoma cells
# Description: (§1) A375 melanoma cells (BRAF^V600E mutant) were purchased from the American Type Culture Collection (Manassas, Va.) and grown in RPMI or DMEM, in the presence of fetal bovine serum (10%), 2 mM L-glutamine and antibiotics (100 IU/ml penicillin and […] streptomycin) purchased from Sigma Aldrich. Cells were maintained at 37° C., 5% CO2 atmosphere.
# (§2) Cells, treated with compound for 24 hr, were lysed in RIPA buffer (CST, Danvers, Mass., USA) on ice and clarified by centrifugation. Equal amounts of proteins were resolved by SDS-PAGE and immunoblotted with indicated antibodies. The antigen-antibody complex was visualized and quantitated using an Odyssey system (LI-COR, Lincoln, Nebr., USA).
# [2] = test system: androgen receptor, AKT, PARP; assay: Western blot in LNCaP cells: androgen receptor, AKT, PARP cleavage; type: cell-based; conditions: FIG. 2
# Text: as §2
# [3] = test system: MEK; assay: Western blot, feedback activation of MEK; type: cell-based; conditions: melanoma cells, FIG. 5
# Description: as §1, §2
# [4] = test system: AKT and ERK; assay: Western blot of signaling pathways, AKT and ERK activity; type: cell-based; conditions: A375 melanoma cells
# Description: as §1, §2
# [5] = test system: B-raf; conditions: cited from earlier work
# [6] = test system: androgen receptor (AR), Akt; assay: Everolimus-induced AR expression and Akt activity, apoptosis (FIG. 1); type: cell-based; conditions: in combination with everolimus
# Text: as §2
Compound,dephosphorylation of 4EBP1 [1],Akt deactivation [2],feedback activation of MEK [3],AKT and ERK activity [4],B-raf degradation ([5]; A375 (V600E) versus CHL cells (wild type B-raf)),B-raf degradation ([5]; B-raf mutants E586K and L597V),"B-raf degradation ([5]; B-raf mutants V600D, G469A, G469E, G596R, G466V, G594V in COS cells)",apoptosis [6],everolimus-induced AR expression and Akt activity [6],"Inhibition of AKT ([4]; Western blot, FIG. 4)"
"Cn1c(=O)n(-c2ccc(C(C)(C)C#N)cc2)c2c3cc(-c4cnc5ccccc5c4)ccc3ncc21 [BEZ235, 2-methyl-2-[4-[3-methyl-2-oxo-8-(quinolin-3-yl)-2,3-dihydroimidazo[4,5-c]quinolin-1-yl]phenyl]propionitrile]",sufficient to dephosphorylate 4EBP1,able to deactivate Akt,feedback activation of MEK observed,enhanced the activity of AKT and ERK,–,–,–,–,–,–
C=CCNC1=C2C[C@@H](C)C[C@H](OC)[C@H](O)[C@@H](C)/C=C(\C)[C@H](OC(N)=O)[C@@H](OC)/C=C\C=C(/C)C(=O)NC(=CC1=O)C2=O [Compound 17AAG],–,–,–,–,B-raf was degraded more rapidly than in CHL cells,not sensitive to degradation,degraded more rapidly than wild type B-raf,–,–,–
"CC(C)c1cc(-c2nnc(O)n2-c2ccc3c(ccn3C)c2)c(O)cc1O [ganetespib, 3-(2,4-DIHYDROXY-5- ISOPROPYL-PHENYL)-4-(1- METHYL-INDOL-5-YL)-5- HYDROXY-[1,2,4] TRIAZOLE]",could not completely dephosphorylate 4EBP1,–,–,effective in disrupting AKT and ERK activity,–,–,–,increased apoptosis,sufficient in blocking everolimus-induced AR expression and Akt activity,blocked by lower concentrations of ganetespib compared to BEZ-235
